Assay results: patent US20100144727A1, “Oxazolidine and Morpholine Carboxamide Derivatives as P2X7 Modulators” (priority 2007, published 2010)

Each molecule was assayed against T1, human P2X7 receptor (Homo sapiens, UniProt Q99572) (assay: Ethidium Accumulation Assay). Conditions: HEK293 cells expressing human recombinant P2X7 receptors; 1 mM ATP; ethidium 100 μM; read-out: pIC50 in the Ethidium Accumulation Assay (antagonist, blocking ATP responses) (converted).
T1 construct: expressed in transfected cells; host or cells: HEK293
T1 sequence (Q99572 1-595): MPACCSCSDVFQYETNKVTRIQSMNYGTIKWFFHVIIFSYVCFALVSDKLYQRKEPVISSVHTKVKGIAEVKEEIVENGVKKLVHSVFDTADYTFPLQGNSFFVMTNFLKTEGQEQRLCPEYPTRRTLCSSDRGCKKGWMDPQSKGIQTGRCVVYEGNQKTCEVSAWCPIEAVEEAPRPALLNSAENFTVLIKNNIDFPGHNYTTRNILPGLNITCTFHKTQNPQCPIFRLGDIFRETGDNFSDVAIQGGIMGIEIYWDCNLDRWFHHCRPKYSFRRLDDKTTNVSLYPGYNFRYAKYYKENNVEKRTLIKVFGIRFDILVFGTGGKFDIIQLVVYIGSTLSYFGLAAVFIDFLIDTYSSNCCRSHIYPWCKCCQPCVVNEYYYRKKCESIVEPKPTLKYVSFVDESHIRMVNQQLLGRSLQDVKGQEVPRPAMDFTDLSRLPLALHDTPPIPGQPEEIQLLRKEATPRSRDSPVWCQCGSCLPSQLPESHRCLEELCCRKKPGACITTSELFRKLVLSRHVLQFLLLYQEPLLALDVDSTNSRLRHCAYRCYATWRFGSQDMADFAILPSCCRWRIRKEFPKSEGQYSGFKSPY
Assay type: cell-based
Experimental: Studies were performed using NaCl assay buffer of the following composition (in mM): 140 mM NaCl, HEPES 10, N-methyl-D-glucamine 5, KCl 5.6, D-glucose 10, CaCl2 0.5 (pH 7.4). HEK293 cells, expressing human recombinant P2X7 receptors, were grown in poly-L-lysine pretreated 96 well plates for 18-24 h. […] The cells were washed twice with 350 μl of assay buffer before addition of 50 μl of antagonist. The cells were then incubated at room temperature (19-21° C.) for 30 min before addition of ATP and ethidium (100 μM final assay concentration). The ATP concentration was chosen to be close to the EC80 for the receptor type and was 1 mM for studies on the human P2X7 receptor. Incubations were continued for 8 or 16 min and were terminated by addition of 25 μl of 1.3M sucrose containing 5 mM of the P2X7 receptor antagonist reactive black 5 (Aldrich). Cellular accumulation of ethidium was determined by measuring fluorescence (excitation wavelength of 530 nm and emission wavelength of 620 nm) from below the plate with a Canberra Packard Fluorocount (Pangbourne, UK). Antagonist pIC50 values for blocking ATP responses were determined using iterative curve fitting techniques.

IC50 [nM]	SMILES
≤ 100	CN1C(=O)COCC1C(=O)NCc1cccc(C(F)(F)F)c1Cl (stereo not shown) [Example E10, N-{[2-chloro-3-(trifluoromethyl)phenyl]methyl}-4-methyl-5-oxo-3-morpholinecarboxamide]
≤ 100	CCN1C(=O)OC[C@H]1C(=O)NCc1ccc(F)cc1Cl [Example E1, N-[(2-chloro-4-fluorophenyl)methyl]-3-ethyl-2-oxo-1,3-oxazolidine-4-carboxamide]
≤ 100	CN1C(=O)OCC1C(=O)NCc1cccc(C(F)(F)F)c1Cl (stereo not shown) [Example E3, N-{[2-chloro-3-(trifluoromethyl)phenyl]methyl}-3-methyl-2-oxo-1,3-oxazolidine-4-carboxamide]
≤ 100	CN1C(=O)OC[C@H]1C(=O)NCc1cccc(C(F)(F)F)c1Cl [Example E4, N-{[2-chloro-3-(trifluoromethyl)phenyl]methyl}-3-methyl-2-oxo-1,3-oxazolidine-4-carboxamide]
